Each structure is given as a SMILES string. Calls of active or inactive are those of the source. How the calls were made is not given here. Some results are limits rather than exact numbers.

The subject of this test is Cell-based VP16 transactivation luciferase reporter, luminescence. Nature of the test: VP16 transactivation reporter inhibitors, dose response, counter-screen for LRH-1 inverse agonist project, cell-based, luminescence (AID 651973).
As for `COc1ccc(CCNC(=O)COC(=O)c2cc(Cl)nc(Cl)c2)cc1`, the IC50 is > 35.9 µM (inactive).

Regarding `COc1ccc(-n2c(/C=C(\C)O)nc(=O)c3c(C)cc(C)nc32)cc1`, the IC50 was > 35.9 µM (inactive).

For `CCC(=O)Nc1nnc(SCC(=O)NCCc2ccc(OC)c(OC)c2)s1`, the IC50 is > 35.9 µM (inactive).

As to `C[C@H](CO)N1C[C@H](C)[C@H](CN(C)Cc2ccncc2)Oc2cc(-c3ccccc3F)ccc2S1(=O)=O`, the IC50 was 14.6 µM (inactive).

For `O=C(Nc1ccc(Cc2ccncc2)cc1)c1ccc([N+](=O)[O-])o1`, the IC50 was > 35.9 µM (inactive).

In the case of `CC(O)(c1cccnc1)c1nc(-c2cccc(C#N)c2)cs1` (stereo not drawn), the IC50 was > 35.9 µM (inactive).

For `CCC(C)(C)n1nnnc1CN1CCC(O)(c2cccc(C(F)(F)F)c2)CC1`, the IC50 was > 35.9 µM (inactive).

As to `COc1cc(/C=N/n2nnnc2N)ccc1OCc1c(C)no[n+]1[O-]`, the IC50 is > 35.9 µM (inactive).

Take `COC(=O)c1ccc(CNC(=O)COC(=O)c2cc(Cl)nc(Cl)c2)cc1`: the IC50 is > 35.9 µM (inactive).

Consider `CC1CC(C)CN(c2cc(N(C)CCO)c([N+](=O)[O-])c3nonc23)C1` (stereo not drawn), for which the IC50 is > 35.9 µM (inactive).

For `COc1ccc(NC(=O)CSc2nnc3ccc(-c4cccnc4)nn23)cc1OC`, the IC50 was > 35.9 µM (inactive).

`Cc1onc(-c2c(F)cccc2Cl)c1C(=O)O/N=C(\N)c1ccc([N+](=O)[O-])o1`: the IC50 is > 35.9 µM (inactive).

With `CC1=CC(O)C(O)C2(C)C1CC1OC(=O)CC3C(C)C(O)C(=O)C2C13CO` (stereo not drawn), the IC50 is > 35.9 µM (inactive).

Regarding `COc1ccc(CCNC(=O)CSc2nn3c(=O)c(C)nnc3s2)cc1OC`, the IC50 was > 35.9 µM (inactive).

As for `O=C(COc1ccc2c3c(c(=O)oc2c1)CCC3)NCc1ccncc1`, the IC50 is > 35.9 µM (inactive).

As to `COc1ccc(CCNC(=O)COC(=O)C23CC4CC(CC(C4)C2)C3)cc1`, the IC50 is > 35.9 µM (inactive).

For `COC(=O)c1ccc(NC(=O)CSc2nc3ncccc3[nH]2)cc1`, the IC50 is > 35.9 µM (inactive).

As for `Cc1nn(Cc2ccccc2)c(C)c1C(=O)OCC(=O)Nc1ccccc1SCC#N`, the IC50 is > 35.9 µM (inactive).

Regarding `O=C(Nc1ccc(S(=O)(=O)N2CCOCC2)cc1)c1ccc([N+](=O)[O-])o1`, the IC50 is 25.5 µM (inactive).

On to `CC(=O)Nc1cc(-c2cccc(F)c2)cn2c(-c3ccc(S(C)(=O)=O)cc3)cnc12`, for which the IC50 was 18.7 µM (inactive).

Take `O=C1CCCN2N=C(SCC(=O)Nc3ccc(Br)cc3)SC2=N1`: the IC50 is > 35.9 µM (inactive).

With `Cc1ccccc1OCC(=O)N/N=C/c1ccc([N+](=O)[O-])o1`, the IC50 is 29.8 µM (inactive).

On to `CCc1cc(=O)oc2c(C)c(OCC(=O)NCCCN3CCOCC3)ccc12`, for which the IC50 is > 35.9 µM (inactive).

On to `NS(=O)(=O)c1ccc(O)c(NC(=O)c2ccc([N+](=O)[O-])o2)c1`, for which the IC50 is > 35.9 µM (inactive).

In the case of `COc1cc2c(cc1OC)CN(C(=O)CN1C(=O)NC3(CCC(C)CC3)C1=O)CC2` (stereo not drawn), the IC50 is > 35.9 µM (inactive).

Consider `COc1ccc(Nc2nc(NCCN3CCOCC3)nc(Nc3ccc(OC)cc3)n2)cc1`, for which the IC50 is > 35.9 µM (inactive).

Regarding `CCCN(CC(=O)Nc1ccc(C(C)=O)cc1)CC(=O)Nc1ccccc1C`, the IC50 was > 35.9 µM (inactive).

For the compound `CS(=O)(=O)c1ccc(-c2cc(NC=O)c3ncc(-c4ccc(F)cc4)n3c2)cc1`, the IC50 is 14.6 µM (inactive).

Turning to `COc1ccccc1NC(=O)c1ccc(NC(=O)CSc2nnnn2C)cc1`, the IC50 was > 35.9 µM (inactive).

For `COC(=O)c1ccc(NC(=O)CSc2nncn2-c2cccnc2)cc1`, the IC50 was > 35.9 µM (inactive).

On to `CCOC(=O)c1cc2sccc2n1CC(=O)Nc1ccc2c(c1)OCCO2`, for which the IC50 was > 35.9 µM (inactive).

`CCc1cc(=O)[nH]c(SCC(=O)Nc2ccc3c(c2)OCCO3)n1`: the IC50 is > 35.9 µM (inactive).

As to `O=C(CSc1nnc(CNC(=O)c2c(F)cccc2F)o1)Nc1ccc2c(c1)OCCO2`, the IC50 was > 35.9 µM (inactive).

Take `COc1ccc(NC(=O)CSc2sc3c(O)cc(=O)[nH]c3c2C#N)c(OC)c1`: the IC50 is > 35.9 µM (inactive).

Take `COc1ccc(-n2c(N)c(C(=O)NCc3cccnc3)sc2=S)cc1`: the IC50 was > 35.9 µM (inactive).

With `Cc1ccc(-c2nn3c(C)nnc3s2)cc1NC(=O)c1cccs1`, the IC50 is > 35.9 µM (inactive).

As to `Cc1nn(CC(=O)Nc2ccc3c(c2)OCCO3)c(C)c1[N+](=O)[O-]`, the IC50 was > 35.9 µM (inactive).

For `O=C(CCl)NCCN1C(=O)S/C(=C\c2cccnc2)C1=O`, the IC50 was 26.8 µM (inactive).

For the compound `Cc1onc(-c2ccccc2Cl)c1C(=O)O/N=C(\N)c1ccc([N+](=O)[O-])o1`, the IC50 was > 35.9 µM (inactive).

Turning to `COc1cc(OC)cc(C(=O)N[C@H](C(=O)OCC(=O)Nc2ccc3c(c2)OCO3)C(C)C)c1`, the IC50 was > 35.9 µM (inactive).

Regarding `CC1CCC2(CC1)NC(=O)N(CC(=O)Nc1ccc3c(c1)OCCCO3)C2=O` (stereo not drawn), the IC50 was > 35.9 µM (inactive).

`Cc1onc(-c2cccc(Cl)c2Cl)c1C(=O)O/N=C(\N)c1ccc([N+](=O)[O-])o1`: the IC50 was > 35.9 µM (inactive).

As for `COc1ccnc(Oc2ccccc2)c1C(=O)N/C=N/OCc1ccccc1F`, the IC50 was 28.2 µM (inactive).

Turning to `CC(=O)Nc1cc(-c2ccc(S(C)(=O)=O)cc2)cn2c(-c3ccc(F)cc3)cnc12`, the IC50 is > 35.9 µM (inactive).

For the compound `Cc1cc(C)c2c(=O)[nH]c(SCC(=O)Nc3ccc(Br)cc3)nc2n1`, the IC50 is > 35.9 µM (inactive).

Consider `CC(=O)Nc1ccc(NC(=O)CSc2nnc(NC(=O)C3CC3)s2)cc1`, for which the IC50 was > 35.9 µM (inactive).

In the case of `CCOc1ccc(NC(=O)CN2CCN(CC(=O)Nc3ccc(OC)cc3)CC2)cc1`, the IC50 was > 35.9 µM (inactive).

`Cc1onc(NC(=O)c2ccc([N+](=O)[O-])o2)c1Br`: the IC50 was > 35.9 µM (inactive).

In the case of `COc1ccc(CCNC(=O)CN2C(=O)NC3(CCCCC3C)C2=O)cc1` (stereo not drawn), the IC50 is > 35.9 µM (inactive).

Turning to `CC(=O)Nc1cc(-c2cccnc2)cn2c(-c3ccc(F)cc3)cnc12`, the IC50 was > 35.9 µM (inactive).

On to `COc1ccc(C2(C)NC(=O)N(CC(=O)Nc3ccc(C)cc3Br)C2=O)cc1OC` (stereo not drawn), for which the IC50 is > 35.9 µM (inactive).

Regarding `O=C(Nc1ccccc1)c1oc2ccccc2c1NC(=O)C1CC1`, the IC50 is > 35.9 µM (inactive).

Take `O=C(CSc1nc(=O)n2cc(Cl)ccc2n1)Nc1ccc2c(c1)OCCO2`: the IC50 was > 35.9 µM (inactive).

Take `O=C(CN1C(=O)NC2(CCCC2)C1=O)NCCc1ccc(F)cc1`: the IC50 was > 35.9 µM (inactive).

Regarding `CC(C)Oc1cccc(-c2cc(C(=O)NN3CCOCC3)c3ccccc3n2)c1`, the IC50 is > 35.9 µM (inactive).

Turning to `Cc1cc(Br)ccc1NC(=O)CN1C(=O)C2CC=CCC2C1=O` (stereo not drawn), the IC50 was > 35.9 µM (inactive).

As for `CC(=O)Nc1ccc(NC(=O)CSc2nnnn2C2CCCCC2)cc1`, the IC50 is > 35.9 µM (inactive).

Take `Cc1cc(NC(=O)c2ccc([N+](=O)[O-])o2)ccc1NC(=O)c1ccco1`: the IC50 is > 35.9 µM (inactive).

As for `CC1(C(=O)NCc2ccc3c(c2)OCO3)CCN1C(=O)Cc1ccc(Cl)cc1Cl` (stereo not drawn), the IC50 is > 35.9 µM (inactive).

Turning to `O=C(CSc1nnc(CNC(=O)c2ccccc2F)o1)Nc1ccc2c(c1)OCCO2`, the IC50 was > 35.9 µM (inactive).

Turning to `CCOCC(=O)Nc1ccc(S(=O)(=O)NCCc2ccccc2)cc1`, the IC50 was > 35.9 µM (inactive).

As for `CCOc1ccc(NC(=O)COC(=O)CC2CCCCC2)cc1`, the IC50 is > 35.9 µM (inactive).

As to `NC(=O)C1CCN(C(=O)COc2ccc3c4c(c(=O)oc3c2)CCC4)CC1`, the IC50 is > 35.9 µM (inactive).

Regarding `CN(C)S(=O)(=O)c1cccc(C(=O)OCC(=O)Nc2ccc3c(c2)OCCO3)c1`, the IC50 was > 35.9 µM (inactive).

On to `O=C(COC(=O)c1ccc(=O)n(Cc2ccccc2)n1)Nc1ccc2c(c1)OCCO2`, for which the IC50 was > 35.9 µM (inactive).

Turning to `CC(C)CC1(C)NC(=O)N(CC(=O)Nc2ccc3c(c2)OCCO3)C1=O` (stereo not drawn), the IC50 is > 35.9 µM (inactive).

Consider `CCc1cc(=O)oc2c(C)c(OCC(=O)NCCCN3CCCC3=O)ccc12`, for which the IC50 is > 35.9 µM (inactive).

Regarding `COc1ccc(NC(=O)COC(=O)Cc2c[nH]c3ccccc23)cc1Cl`, the IC50 is > 35.9 µM (inactive).

Regarding `O=C(COC(=O)CCN1C(=O)C2CC=CCC2C1=O)NCCc1ccc(F)cc1` (stereo not drawn), the IC50 was > 35.9 µM (inactive).

As to `Cc1c(Cl)cccc1NC(=O)CS(=O)(=O)c1ccccc1`, the IC50 is > 35.8 µM (inactive).

As to `COCCn1c(C)cc(/C=C(\C#N)C(=O)OCC(=O)Nc2ccc(S(N)(=O)=O)cc2)c1C`, the IC50 was > 35.9 µM (inactive).

In the case of `Cc1cc(Br)ccc1NC(=O)CN1C(=O)CCC1=O`, the IC50 was > 35.9 µM (inactive).

As for `Cc1ccc(NC(=O)CSc2sc3c(O)cc(=O)[nH]c3c2C#N)c(F)c1`, the IC50 is > 35.9 µM (inactive).

On to `COc1ccc(CCNC(=O)CSc2nc3[nH]c(=O)cc(O)c3s2)cc1`, for which the IC50 was > 35.9 µM (inactive).

As to `CCOc1ccc(NC(=O)CSc2nnc(C(C)C)n2CC)cc1`, the IC50 is > 35.9 µM (inactive).

Regarding `COc1ccc(OCCNC(=O)C2(C)CCN2Cc2ccc(SC)cc2)cc1` (stereo not drawn), the IC50 is 28.5 µM (inactive).

In the case of `CCOc1ccc(NC(=O)COC(=O)c2ccc3c(c2)OCCO3)cc1`, the IC50 is > 35.9 µM (inactive).

`O=C(NCc1ccco1)c1nn(-c2ccccc2)c(=O)c2ccccc12`: the IC50 is > 35.9 µM (inactive).

For the compound `CCCc1cc(=O)oc2cc(OCC(=O)NCc3ccccn3)ccc12`, the IC50 is > 35.9 µM (inactive).

With `NS(=O)(=O)c1ccc(CCNC(=O)COc2ccc3c4c(c(=O)oc3c2)CCC4)cc1`, the IC50 is > 35.9 µM (inactive).

For `Cc1cccc(CN2C(=O)CSc3ccc(C(=O)NC4CC4)cc32)c1`, the IC50 is 26.3 µM (inactive).

As to `Cc1nnc(SCC(=O)Nc2ccc(Br)cc2)n(N)c1=O`, the IC50 is > 35.9 µM (inactive).

Take `Cc1cc(C)c2sc(NC(=O)c3ccc([N+](=O)[O-])o3)nc2c1`: the IC50 was > 35.8 µM (inactive).

Source of the values: PubChem BioAssay AID651973 (The Scripps Research Institute Molecular Screening Center, 2013).
